System: Plasmodium berghei
Assay: Luciferase/luciferin-expressing antifolate-resistant parasites were used to infect a culture of HepG2 cells that were pre-incubated with compounds. Infected hepatocytes emit light due to the luciferase reaction. Assay results are presented as the percent inhibition of light emission compared to control. […]
Format: functional
Details: sporozoite; for IC90: read-out: LUCIFERASE INFECTION ASSAY - IC90
[1] = read-out: LUCIFERASE INFECTION ASSAY - IC50

SMILES | IC90 [µM] | IC50 [1] [µM] | other results
c1ccc2cc(-c3cnc4ccc(NCc5ccncc5)nn34)ccc2c1 | 4.49 |  | IC50 (HEPG2TOX_HILL_SLOPE 3.1, HEPG2TOX_R_SQUARED 0.978, PBLUC_HILL_SLOPE 7.42, PBLUC_R_SQUARED 0.525, read-out: LUCIFERASE INFECTION ASSAY - IC50): 3.34 µM
Cc1cccc(N2CCN(C(=O)c3ccccc3SCC(=O)Nc3ccc(F)cc3)CC2)c1C | > 10 |  | IC50 (HEPG2TOX_HILL_SLOPE 6.74, HEPG2TOX_R_SQUARED 0.191, PBLUC_HILL_SLOPE 2.5, PBLUC_R_SQUARED 0.41, read-out: LUCIFERASE INFECTION ASSAY - IC50): 5.48 µM
COc1ccc(C2c3ccc4ccccc4c3OC(=N)C2C#N)cc1 (stereo unspecified) | > 10 | > 10 | 
COc1ccc2nc(C(=O)NNC(=O)c3cc(C)oc3C)ccc2c1 | > 10 |  | IC50 (HEPG2TOX_HILL_SLOPE 10.5, HEPG2TOX_R_SQUARED 0.205, PBLUC_HILL_SLOPE 2.55, PBLUC_R_SQUARED 0.459, read-out: LUCIFERASE INFECTION ASSAY - IC50): 6.67 µM
Cn1cc(C(=O)Nc2ccc(-c3nc4ccccc4[nH]3)cc2)c(-c2ccc3c(c2)OCCCO3)n1 | 4.31 |  | IC50 (HEPG2TOX_HILL_SLOPE 2.56, HEPG2TOX_R_SQUARED 0.953, PBLUC_HILL_SLOPE 7.83, PBLUC_R_SQUARED 0.745, read-out: LUCIFERASE INFECTION ASSAY - IC50): 3.25 µM
CC(C)CCCC(C)C1CCC2(C)C3=C(CCC12C)C1(C)CCC(=O)C(C)(C)C1CC3 (stereo unspecified) | 6.57 |  | IC50 (HEPG2TOX_HILL_SLOPE 3.93, HEPG2TOX_R_SQUARED 0.974, PBLUC_HILL_SLOPE 2.18, PBLUC_R_SQUARED 0.307, read-out: LUCIFERASE INFECTION ASSAY - IC50): 2.4 µM
CNc1ccccc1C(C)(C)c1cc(-c2ccc(Cl)cc2)no1 | > 10 | 4.84 | 
Oc1c(C(Nc2nccs2)c2cccnc2)ccc2cccnc12 (stereo unspecified) | 3.75 |  | IC50 (HEPG2TOX_HILL_SLOPE 1.4, HEPG2TOX_R_SQUARED 0.615, PBLUC_HILL_SLOPE 3.49, PBLUC_R_SQUARED 0.793, read-out: LUCIFERASE INFECTION ASSAY - IC50): 2 µM
CCNC(=O)NC(=O)CNC(c1ccc(CC)cc1)c1cccc(F)c1 (stereo unspecified) | > 10 |  | IC50 (HEPG2TOX_HILL_SLOPE 2.54, HEPG2TOX_R_SQUARED 0.274, read-out: LUCIFERASE INFECTION ASSAY - IC50): > 10 µM
COc1ccc(NC(=O)c2ccn[nH]2)cc1NC(=O)c1ccc(Cl)cc1F | 4.87 |  | IC50 (HEPG2TOX_HILL_SLOPE 3.17, HEPG2TOX_R_SQUARED 0.943, PBLUC_HILL_SLOPE 8.03, PBLUC_R_SQUARED 0.294, read-out: LUCIFERASE INFECTION ASSAY - IC50): 3.7 µM
CCCn1nc(C(=O)NCC(c2ccc(OC)cc2)N2CCOCC2)c2ccccc2c1=O (stereo unspecified) | > 10 |  | IC50 (HEPG2TOX_HILL_SLOPE 1.06, HEPG2TOX_R_SQUARED 0.0699, read-out: LUCIFERASE INFECTION ASSAY - IC50): > 10 µM
O=C(Nc1ccc2oc(=O)[nH]c2c1)c1cnn(-c2ccc(Cl)cc2)c1 | > 10 | > 10 | 
O=C(Cc1csc(-c2ccccc2Cl)n1)NCCCCOc1ccc(F)cc1 | > 10 |  | IC50 (HEPG2TOX_HILL_SLOPE 9.37, HEPG2TOX_R_SQUARED 0.776, PBLUC_HILL_SLOPE 2.48, PBLUC_R_SQUARED 0.584, read-out: LUCIFERASE INFECTION ASSAY - IC50): 5.48 µM
Cc1cccc(OCCNC(=O)c2cc(S(=O)(=O)N3CCOCC3)ccc2N2CCOCC2)c1 | > 10 |  | IC50 (HEPG2TOX_HILL_SLOPE 6.77, HEPG2TOX_R_SQUARED 0.742, read-out: LUCIFERASE INFECTION ASSAY - IC50): > 10 µM
Cc1ccc(-n2[nH]c(C)c(C=Nc3ccc(OC(F)(F)F)cc3)c2=O)cc1 | > 8.79 |  | IC50 (PBLUC_HILL_SLOPE 2.73, PBLUC_R_SQUARED 0.732, read-out: LUCIFERASE INFECTION ASSAY - IC50): 4.57 µM
CSCc1cc(N2CCOCC2)nc(SCc2ccc(Cl)cc2Cl)n1 | > 7.93 | > 7.93 | 
OCCNc1nc(-c2cccnc2)nc2scc(-c3ccccc3)c12 | > 10 |  | IC50 (PBLUC_HILL_SLOPE 15.6, PBLUC_R_SQUARED 0.267, read-out: LUCIFERASE INFECTION ASSAY - IC50): 9.57 µM
CCN(CC)S(=O)(=O)c1cccc(NC(=O)c2sc(Nc3ccc(C)cc3C)c(C(=O)NC(C)COC)c2N)c1 (stereo unspecified) | > 10 |  | IC50 (FFLUC_HILL_SLOPE 0.973, FFLUC_R_SQUARED 0.376, read-out: LUCIFERASE INFECTION ASSAY - IC50): > 10 µM
CN(CCOc1ccccc1F)C(=O)c1cc(S(=O)(=O)N2CCCC2)c[nH]1 | > 2 | > 2 | 
O=S(=O)(c1ccc(Br)s1)N1CCC(C(c2ccccc2)c2ccccc2)CC1 | > 6.93 | > 6.93 | 
Cc1c(C(=O)N2CCN(c3cc(C#N)ccn3)CC2)[nH]c2c1C(=O)CCC2 | > 10 |  | IC50 (HEPG2TOX_HILL_SLOPE 7.54, HEPG2TOX_R_SQUARED 0.56, read-out: LUCIFERASE INFECTION ASSAY - IC50): > 10 µM
CCc1cccc(CC)c1NC(=O)/C(C#N)=C/c1ccccc1C(F)(F)F | 4.5 | 3.68 | 

SMILES | IC90 [µM] | IC50 [1] [µM] | other results
Cc1nc(SCc2cccc(S(=O)(=O)N(C)C)c2)c2ccccc2n1 | > 10 |  | IC50 (HEPG2TOX_HILL_SLOPE 2.7, HEPG2TOX_R_SQUARED 0.556, read-out: LUCIFERASE INFECTION ASSAY - IC50): > 10 µM
CC1CC(C)CN(C(=O)c2ccccc2C(=O)OCC(=O)NCc2cccs2)C1 (stereo unspecified) | > 10 | > 10 | 
Clc1ccc(-c2csc(NCC3CCCO3)n2)cc1 (stereo unspecified) | > 11.2 | > 11.2 | 
Cc1ccc(C(=O)Nc2nc(CC34CC5CC(CC(C5)C3)C4)cs2)s1 | > 10 |  | IC50 (PBLUC_HILL_SLOPE 2.85, PBLUC_R_SQUARED 0.204, read-out: LUCIFERASE INFECTION ASSAY - IC50): 6.66 µM
Cc1nn(CC(=O)Nc2cccc(Cl)c2)c(C)c1Oc1ccccc1 | > 9.27 | 5.38 | 
Oc1c(Br)cc(Cl)cc1/C=N/NC(=S)NC1CC1 | > 9.47 |  | IC50 (PBLUC_HILL_SLOPE 2.42, PBLUC_R_SQUARED 0.376, read-out: LUCIFERASE INFECTION ASSAY - IC50): 4.15 µM
COc1ccc(C(=O)c2cc(C#N)c(N)n3c2nc2ccccc23)cc1 | 3.53 |  | IC50 (HEPG2TOX_HILL_SLOPE 1.32, HEPG2TOX_R_SQUARED 0.922, PBLUC_HILL_SLOPE 2.77, PBLUC_R_SQUARED 0.822, read-out: LUCIFERASE INFECTION ASSAY - IC50): 1.6 µM
CS(=O)(=O)c1ccc(N2CCCN(c3ccc(C(F)(F)F)cn3)CC2)c([N+](=O)[O-])c1 | > 10 | > 10 | 
O=C(OCc1cc(=O)n2cc(Br)ccc2n1)C1(c2ccccc2)CC1 | > 10 | > 10 | 
COC(=O)Cc1[nH]n(-c2ccccc2)c(=O)c1C(C)=NCc1cccnc1 | > 9.06 |  | IC50 (HEPG2TOX_HILL_SLOPE 0.403, HEPG2TOX_R_SQUARED 0.018, read-out: LUCIFERASE INFECTION ASSAY - IC50): > 9.06 µM
O=[N+]([O-])c1ccc2c(c1)nc(SCc1ccc(Cl)cc1Cl)n2-c1ccccc1 | > 10 |  | IC50 (FFLUC_HILL_SLOPE 1.41, FFLUC_R_SQUARED 0.219, read-out: LUCIFERASE INFECTION ASSAY - IC50): > 10 µM
C=CCSc1nnc(-c2ccco2)n1-c1ccc(OCc2ccccc2)cc1 | > 8.47 | > 8.47 | 
Nc1nn(C(=O)c2csc3ccccc23)c2ccccc12 | > 10 |  | IC50 (FFLUC_HILL_SLOPE 1.19, FFLUC_R_SQUARED 0.595, HEPG2TOX_HILL_SLOPE 0.0302, HEPG2TOX_R_SQUARED 0.0617, PBLUC_HILL_SLOPE 0.566, PBLUC_R_SQUARED 0.73, read-out: LUCIFERASE INFECTION ASSAY - IC50): 0.359 µM
OC(CN1CCN(CC(O)Cn2c3ccccc3c3ccccc32)CC1)Cn1c2ccccc2c2ccccc21 (stereo unspecified) | > 6.2 |  | IC50 (PBLUC_HILL_SLOPE 2.73, PBLUC_R_SQUARED 0.624, read-out: LUCIFERASE INFECTION ASSAY - IC50): 3.03 µM
CC1=C2CCCC2CC/C1=N\NC(N)=O (stereo unspecified) | > 15.9 |  | IC50 (HEPG2TOX_HILL_SLOPE 20.4, HEPG2TOX_R_SQUARED 0.643, PBLUC_HILL_SLOPE 11.7, PBLUC_R_SQUARED 0.0908, read-out: LUCIFERASE INFECTION ASSAY - IC50): 14.9 µM
COC(=O)C1C(c2ccc(N(C)C)cc2)C(C(=O)OC)S(=O)(=O)C(=NNc2ccc(OC)cc2[N+](=O)[O-])S1(=O)=O (stereo unspecified) | > 10 |  | IC50 (FFLUC_HILL_SLOPE 2.66, FFLUC_R_SQUARED 0.775, read-out: LUCIFERASE INFECTION ASSAY - IC50): > 10 µM
Cn1c(N)c(C(=O)CSc2nnc(-c3ccccc3)c(-c3ccccc3)n2)c(=O)n(C)c1=O | > 10 |  | IC50 (PBLUC_HILL_SLOPE 1.94, PBLUC_R_SQUARED 0.495, read-out: LUCIFERASE INFECTION ASSAY - IC50): 3.75 µM
CCCC1NC(=O)N(CC(O)COc2cccc(C(=O)OCC)c2)C1=O (stereo unspecified) | > 10 | > 10 | 
CC(C)(C)c1ccc(C2=NNC(=NCCCN3CCOCC3)SC2)cc1 | 9.2 |  | IC50 (PBLUC_HILL_SLOPE 3.6, PBLUC_R_SQUARED 0.412, read-out: LUCIFERASE INFECTION ASSAY - IC50): 5 µM
COc1cc(-c2nccc3n[nH]c(C4CC4)c23)cc(OC)c1OC | > 10 |  | IC50 (HEPG2TOX_HILL_SLOPE 1.34, HEPG2TOX_R_SQUARED 0.994, read-out: LUCIFERASE INFECTION ASSAY - IC50): > 10 µM
CCOC(=O)C1SC(C(C#N)c2ccccn2)=NC1(c1ccc(C)cc1)C(F)(F)F (stereo unspecified) | > 10 | > 10 | 
